Where only a bound is given, the exact number is not on record here.

Series [1] relates to Rattus norvegicus. The series is described as follows: Antiinflammatory activity in Wistar rat assessed as inhibition of carrageenan-induced edema measured as increase in foot volume at 5 mg/kg, po administered 1 hr prior challenge measured 3 hrs after carrageenin injection (reference value: 187.6 %). It is filed as functional. Also noted: scale not given: the % may be the effect or the level left.

The subject of series [2] is Rattus norvegicus. The series is described as follows: Antiinflammatory activity in Wistar rat assessed as inhibition of carrageenan-induced edema measured as increase in foot volume at 20 mg/kg, po administered 1 hr prior challenge measured 3 hrs after carrageenin injection (reference value: 187.6 %). It is filed as functional. Details: scale not given: the % may be the effect or the level left.

For series [3], the system named is Rattus norvegicus. The series is described as follows: Antiinflammatory activity in Wistar rat assessed as inhibition of carrageenan-induced edema measured as increase in foot volume at 40 mg/kg, po administered 1 hr prior challenge measured 3 hrs after carrageenin injection (reference value: 187.6 %). Details: scale not given: the % may be the effect or the level left. Format: functional.

The subject of series [4] is Rattus norvegicus. The series is described as follows: Antiinflammatory activity in Wistar rat assessed as inhibition of carrageenan-induced edema measured as increase in foot volume at 5 mg/kg, po administered 1 hr prior challenge measured 7 hrs after carrageenin injection (reference value: 178.8 %). It is filed as functional. Details: scale not given: the % may be the effect or the level left.

Series [5] has as its system Rattus norvegicus. The series is described as follows: Antiinflammatory activity in Wistar rat assessed as inhibition of carrageenan-induced edema measured as increase in foot volume at 20 mg/kg, po administered 1 hr prior challenge measured 7 hrs after carrageenin injection (reference value: 178.8 %). It is filed as functional. Details: scale not given: the % may be the effect or the level left.

Series [6] concerns Rattus norvegicus. The series is described as follows: Antiinflammatory activity in Wistar rat assessed as inhibition of carrageenan-induced edema measured as increase in foot volume at 40 mg/kg, po administered 1 hr prior challenge measured 7 hrs after carrageenin injection (reference value: 178.8 %). Also noted: scale not given: the % may be the effect or the level left. It is filed as functional.

The nature of series [7]: Toxicity in ip dosed Swiss mouse. Format: organism-based. Particulars: in vivo.

With `O=C(O)c1c(Cl)[nH]c2ccccc12`, the Activity in the series with Rattus norvegicus [1] came out at 153.1%; in the series with Rattus norvegicus [2], 161.7%; in the series with Rattus norvegicus [3] it was 156.4%; in the series with Rattus norvegicus [4], 143.4%; in the series with Rattus norvegicus [5] it was 153.5%; in the series on Rattus norvegicus [6] it was 132.1%. This molecule came in with an LD50 in series [7] above 500 mg/kg.
Turning to `Cn1c(Cl)c(C(=O)O)c2ccccc21`, the Activity with Rattus norvegicus [1] was 145.1%; in the series with Rattus norvegicus [2], 146.5%; with Rattus norvegicus [3] it was 148.3%; in the series on Rattus norvegicus [4] it was 133.3%; in the series with Rattus norvegicus [5], 133.8%; with Rattus norvegicus [6], 150.7%. This molecule gave a 50% lethal dose (LD50) in series [7] above 500 mg/kg.
For the molecule `O=C(O)c1c(Cl)n(-c2ccccc2)c2ccccc12`, the Activity in the series on Rattus norvegicus [1] was 159.8%; with Rattus norvegicus [2] it was 149.4%; with Rattus norvegicus [3], 173.8%; with Rattus norvegicus [4] it was 151.4%; in the series on Rattus norvegicus [5], 130.1%; with Rattus norvegicus [6], 201.1%. Further, in series [7], the LD50 is above 500 mg/kg.
For the molecule `O=C(O)Cc1c(Cl)n(-c2ccccc2)c2ccccc12`, the Activity in the series with Rattus norvegicus [1] was 170.3%; in the series with Rattus norvegicus [2], 165.9%; with Rattus norvegicus [3] it was 138%; in the series with Rattus norvegicus [4], 200.9%; with Rattus norvegicus [5], 191.8%; in the series on Rattus norvegicus [6] it was 186.4%. Besides, the median lethal dose (LD50) in series [7] was above 500 mg/kg.
For the molecule `COc1ccc2c(c1)c(CC(=O)O)c(C)n2C(=O)c1ccc(Cl)cc1` [INDOMETHACIN], the Activity in the series with Rattus norvegicus [1] amounted to 98.5%; in the series with Rattus norvegicus [4], 106.8%.

Values taken from ChEMBL document CHEMBL3272342, “Nonsteroidal antiinflammatory agents. 2. Synthesis and biological activity of 2-chloroindolecarboxylic acids” (J Med Chem, 1977).
